Laboratory results from US20250281462A1, “THERAPEUTICALLY EFFECTIVE ORAL ADMINISTRATION OF A 2 ARYLBENZIMIDAZOLE” (Tranquis Therapeutics, Inc., priority 2021, published 2025).
“Also recorded” adds a separate entry of the source.

Assays:
TNFα = TNFα release by LPS-stimulated BV2 cells (ELISA); assay type: cell-based, murine
Procedure: First, 100 μL of supernatant was removed from Cell Plate and transferred to a Dilution Plate, which was then centrifuged at 216×g for 10 minutes to remove particulates. The dilution plate was either assayed immediately or aliquots were taken and stored at ≤−20° C.; repeated freeze-thaw cycles were avoided.
Next, a standard curve was prepared by first pipetting 900 ul of Calibrator Diluent RD5K into the […] tube, followed by 200 μl of the appropriate calibrator diluent in the remaining tubes. The stock solution was used to produce a dilution. The resulting tubes were then thoroughly mixed. The Mouse TNFα Standard ([…]) served as the high standard, and the Calibrator Diluent RD5T served as the zero standard at 0 pg/ml.
Assay Diluent RD1-63 (50 uL) was then added to the center of each well and mixed before and during its use. Then, 50 ul of either standard, control, or sample was added to the center of each well, and covered with adhesive strip. […]
Substrate solution (100 uL) was then added to each well, incubated in the dark for 30 minutes at room temperature, followed by addition of 100 μl of Stop Solution and mixed. The optical density of each well was determined within 30 minutes by using a microplate reader set to 450 nm.
Plates were read on a Spectrostar Nano machine with built-in MARS data analysis at […] and 570 nM. […]

[1] = Phase 1 multiple dose trial, plasma pharmacokinetics (Part 2); conditions: for Tmax: median
PGC-1α = PGC-1α protein expression in BV2 cells (Western blot); assay type: cell-based, murine; conditions: 20 μM, 24 hours
Procedure: Frozen BV2 murine microglia cells were thawed and propagated in complete media (RPMI, 10% heat-inactivated FBS, 1% L-glutamine, 1% Pen-Strep) until the growth rate reached log phase. For protein expression analysis, DMSO (1:1000 final dilution) or TQS-168 in DMSO (1:1000 final dilution) at 20 μM was added to cell cultures. After 24 hours stimulation, supernatant was discarded and cell lysis buffer (Cell Signal) was added to adherent cells to extract protein. Total protein was quantified and normalized across all samples by BCA assays. Two replicates of untreated cultures and three replicates of TQS-168-treated cultures were investigated, with each replicate containing lysates from 5,000,000 BV2 myeloid cells. PGC1α expression was detected by Western Blot using an anti-PGC-1α antibody (SC13067, Santa Cruz Biotechnology, 1:500 dilution). Anti-[…] antibody (SC8432, Santa Cruz Biotechnology, 1:2000 dilution) was used to quantify beta-actin, a housekeeping gene whose expression level is not known to be affected by TQS-168. […] Total protein was quantified and normalized across all samples by BCA assays. PGC-1α was subsequently detected by Western Blot using an anti-PGC-1α antibody (SC13067, Santa Cruz Biotechnology, 1:500 dilution). β-actin was detected with an anti-β-actin antibody (SC8432, Santa Cruz Biotechnology, 1:2000 dilution). […]

[2] = human plasma, Regimen I: 120 mg TQS-168 SDD QD 7 days, fasted, geometric mean
[3] = human plasma, Regimen J 90 mg SDD fed, Day 1
[4] = human plasma, Regimen J 90 mg SDD fed, Day 7
[5] = human plasma, Regimen J: 90 mg TQS-168 SDD QD 7 days, fed, geometric mean
[6] = human plasma, Regimen K: 300 mg TQS-168 SDD QD 7 days, fed, geometric mean

Compound: CC(C)(C)c1ccc(-c2nc3ccccc3[nH]2)cc1 [TQS-168, 2-(4-tert-butylphenyl)-1H-benzimidazole]
- suppression of TNFα production (TNFα; BV-2 cells, 0.3 ng/mL LPS, 10 μM TQS-168, ELISA, 24 hours): about 25%
- inhibition at 10 µM (TNFα; Mus musculus, BV-2, 24 h, read-out: inhibition of TNFα production): ~35%
- T1/2 ([1]; Regimen J, 90 mg TQS-168 SDD QD, fed, Day 7, geometric mean): 4.46 h
- T1/2 ([1]; Regimen K, 300 mg TQS-168 SDD QD, fed, Day 7, geometric mean): 5.67 h
- AUC(0-tau) ([1]; human plasma, Regimen I: 120 mg TQS-168 SDD QD 7 days, fasted, Day 1, geometric mean): 438 ng·h/mL
- AUC(0-tau) ([1]; human plasma, Regimen I: 120 mg TQS-168 SDD QD 7 days, fasted, Day 7, geometric mean): 692 ng·h/mL
- accumulation ratio based on AUC(0-tau) [1, 2]: 1.58
- accumulation ratio based on Cmax [1, 2]: 1.59
- maximum individual AUC(0-tau) as share of the AUC(0-24) exposure limit [1, 3]: 10.9%
- maximum individual Cmax as share of the Cmax exposure limit [1, 3]: 21.6%
- maximum individual AUC(0-tau) as share of the AUC(0-24) exposure limit [1, 4]: 19.5%
- maximum individual Cmax as share of the Cmax exposure limit [1, 4]: 30.9%
- AUC(0-tau) ([1]; human plasma, Regimen J: 90 mg TQS-168 SDD QD 7 days, fed, Day 1, geometric mean): 223 ng·h/mL
- AUC(0-tau) ([1]; human plasma, Regimen J: 90 mg TQS-168 SDD QD 7 days, fed, Day 7, geometric mean): 227 ng·h/mL
- accumulation ratio based on AUC(0-tau) [1, 5]: 1.24
- accumulation ratio based on Cmax [1, 5]: 1.03
- AUC(0-tau) ([1]; human plasma, Regimen K: 300 mg TQS-168 SDD QD 7 days, fed, Day 1, geometric mean): 1210 ng·h/mL
- AUC(0-tau) ([1]; human plasma, Regimen K: 300 mg TQS-168 SDD QD 7 days, fed, Day 7, geometric mean): 2010 ng·h/mL
- accumulation ratio based on AUC(0-tau) [1, 6]: 1.66
- accumulation ratio based on Cmax [1, 6]: 1.74
- AUC ([1]; male, human, in vivo, 90 mg, AUC(0-tau), Regimen J, 90 mg TQS-168 SDD QD, fed, Day 1, tau = 24 h, geometric mean): 223 ng·h/mL
- AUC ([1]; male, human, in vivo, 90 mg, AUC(0-tau), Regimen J, 90 mg TQS-168 SDD QD, fed, Day 7, tau = 24 h, geometric mean): 227 ng·h/mL
- AUC ([1]; male, human, in vivo, 90 mg, AUC(0-tau), human plasma, Regimen J: 90 mg TQS-168 SDD QD 7 days, fed, Day 1, geometric mean): 223 ng·h/mL
- AUC ([1]; male, human, in vivo, 90 mg, AUC(0-tau), human plasma, Regimen J: 90 mg TQS-168 SDD QD 7 days, fed, Day 7, geometric mean): 227 ng·h/mL
- Cmax ([1]; male, human, in vivo, 90 mg, Cmax, Regimen J, 90 mg TQS-168 SDD QD, fed, Day 1, plasma, geometric mean): 47.4 ng/mL
- Cmax ([1]; male, human, in vivo, 90 mg, Cmax, Regimen J, 90 mg TQS-168 SDD QD, fed, Day 7, plasma, geometric mean): 48.8 ng/mL
- Cmax ([1]; male, human, in vivo, 90 mg, Cmax, human plasma, Regimen J: 90 mg TQS-168 SDD QD 7 days, fed, Day 1): 190 nM
- Cmax ([1]; male, human, in vivo, 90 mg, Cmax, human plasma, Regimen J: 90 mg TQS-168 SDD QD 7 days, fed, Day 1, geometric mean): 47.4 ng/mL
- Cmax ([1]; male, human, in vivo, 90 mg, Cmax, human plasma, Regimen J: 90 mg TQS-168 SDD QD 7 days, fed, Day 7): 190 nM
- Cmax ([1]; male, human, in vivo, 90 mg, Cmax, human plasma, Regimen J: 90 mg TQS-168 SDD QD 7 days, fed, Day 7, geometric mean): 48.8 ng/mL
- Tmax ([1]; male, human, in vivo, 90 mg, Tmax (median), Regimen J, 90 mg TQS-168 SDD QD, fed, Day 7, plasma): 3 h
- Tmax ([1]; male, human, in vivo, 90 mg, Tmax, human plasma, Regimen J: 90 mg TQS-168 SDD QD 7 days, fed, Day 1): 3 h
- Tmax ([1]; male, human, in vivo, 90 mg, Tmax, human plasma, Regimen J: 90 mg TQS-168 SDD QD 7 days, fed, Day 7): 3 h
- AUC ([1]; male, human, in vivo, 90 mg, maximum individual AUC(0-tau), human plasma, Regimen J 90 mg SDD fed, Day 1): 299 ng·h/mL
- AUC ([1]; male, human, in vivo, 90 mg, maximum individual AUC(0-tau), human plasma, Regimen J 90 mg SDD fed, Day 7): 535 ng·h/mL
- Cmax ([1]; male, human, in vivo, 90 mg, maximum individual Cmax, human plasma, Regimen J 90 mg SDD fed, Day 1): 65.8 ng/mL
- Cmax ([1]; male, human, in vivo, 90 mg, maximum individual Cmax, human plasma, Regimen J 90 mg SDD fed, Day 7): 94.1 ng/mL
- half-life ([1]; male, human, in vivo, 120 mg): 7.7 h
- AUC ([1]; male, human, in vivo, 120 mg, AUC(0-tau), human plasma, Regimen I: 120 mg TQS-168 SDD QD 7 days, fasted, Day 1, geometric mean): 438 ng·h/mL
- AUC ([1]; male, human, in vivo, 120 mg, AUC(0-tau), human plasma, Regimen I: 120 mg TQS-168 SDD QD 7 days, fasted, Day 7, geometric mean): 692 ng·h/mL
- Cmax ([1]; male, human, in vivo, 120 mg, Cmax, human plasma, Regimen I: 120 mg TQS-168 SDD QD 7 days, fasted, Day 1): 690 nM
- Cmax ([1]; male, human, in vivo, 120 mg, Cmax, human plasma, Regimen I: 120 mg TQS-168 SDD QD 7 days, fasted, Day 1, geometric mean): 172 ng/mL
- Cmax ([1]; male, human, in vivo, 120 mg, Cmax, human plasma, Regimen I: 120 mg TQS-168 SDD QD 7 days, fasted, Day 7): 1090 nM
- Cmax ([1]; male, human, in vivo, 120 mg, Cmax, human plasma, Regimen I: 120 mg TQS-168 SDD QD 7 days, fasted, Day 7, geometric mean): 273 ng/mL
- Tmax ([1]; male, human, in vivo, 120 mg, Tmax, human plasma, Regimen I: 120 mg TQS-168 SDD QD 7 days, fasted, Day 1): 1 h
- Tmax ([1]; male, human, in vivo, 120 mg, Tmax, human plasma, Regimen I: 120 mg TQS-168 SDD QD 7 days, fasted, Day 7): 0.75 h
- AUC ([1]; male, human, in vivo, 300 mg, AUC(0-tau), Regimen K, 300 mg TQS-168 SDD QD, fed, Day 1, tau = 24 h, geometric mean): 1210 ng·h/mL
- AUC ([1]; male, human, in vivo, 300 mg, AUC(0-tau), Regimen K, 300 mg TQS-168 SDD QD, fed, Day 7, tau = 24 h, geometric mean): 2010 ng·h/mL
- AUC ([1]; male, human, in vivo, 300 mg, AUC(0-tau), human plasma, Regimen K: 300 mg TQS-168 SDD QD 7 days, fed, Day 1, geometric mean): 1210 ng·h/mL
- AUC ([1]; male, human, in vivo, 300 mg, AUC(0-tau), human plasma, Regimen K: 300 mg TQS-168 SDD QD 7 days, fed, Day 7, geometric mean): 2010 ng·h/mL
- Cmax ([1]; male, human, in vivo, 300 mg, Cmax, Regimen K, 300 mg TQS-168 SDD QD, fed, Day 1, plasma, geometric mean): 229 ng/mL
- Cmax ([1]; male, human, in vivo, 300 mg, Cmax, Regimen K, 300 mg TQS-168 SDD QD, fed, Day 7, plasma, geometric mean): 400 ng/mL
- Cmax ([1]; male, human, in vivo, 300 mg, Cmax, human plasma, Regimen K: 300 mg TQS-168 SDD QD 7 days, fed, Day 1): 910 nM
- Cmax ([1]; male, human, in vivo, 300 mg, Cmax, human plasma, Regimen K: 300 mg TQS-168 SDD QD 7 days, fed, Day 1, geometric mean): 229 ng/mL
- Cmax ([1]; male, human, in vivo, 300 mg, Cmax, human plasma, Regimen K: 300 mg TQS-168 SDD QD 7 days, fed, Day 7): 1600 nM
- Cmax ([1]; male, human, in vivo, 300 mg, Cmax, human plasma, Regimen K: 300 mg TQS-168 SDD QD 7 days, fed, Day 7, geometric mean): 400 ng/mL
- Tmax ([1]; male, human, in vivo, 300 mg, Tmax (median), Regimen K, 300 mg TQS-168 SDD QD, fed, Day 7, plasma): 4 h
- Tmax ([1]; male, human, in vivo, 300 mg, Tmax, human plasma, Regimen K: 300 mg TQS-168 SDD QD 7 days, fed, Day 1): 2 h
- Tmax ([1]; male, human, in vivo, 300 mg, Tmax, human plasma, Regimen K: 300 mg TQS-168 SDD QD 7 days, fed, Day 7): 4 h
- Tmax ([1]; male, human, in vivo, po, 90 mg, Tmax (median), Regimen J, 90 mg TQS-168 SDD powder for oral suspension QD, fed, Day 1, plasma): 3 h
- Tmax ([1]; male, human, in vivo, po, 300 mg, Tmax (median), Regimen K, 300 mg TQS-168 SDD powder for oral suspension QD, fed, Day 1, plasma): 2 h
- induction of PGC-1α protein expression (PGC-1α): induces PGC-1α protein expression; also recorded: induction of PGC-1α protein expression
